The results in this text go back to patent publication US20250041307A1, “Uses of Bicyclic Compounds for the Treatment of Diseases” (Athira Pharma, Inc., priority 2021, published 2025).

For one data set, the system named is HGF/MET system. In words: Phospho-MET ELISA. The data set is classed as cell-based. More on the design: key: − indicates that the compound failed to significantly augment MET phosphorylation; + indicates maximum potency at or above 100 nM; ++ indicates maximum potency at or above 10 nM; +++ indicates maximum potency at or above 1 nM; ++++ indicates maximum potency at or above 0.1 nM. As to conditions: HEK293 cells; with 1 ng/mL recombinant HGF; 15 minutes; augmentation of MET phosphorylation (pMET ELISA). In short, it runs like this:
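Serum-starved (≥8 h) HEK293 cells treated with compound plus 1 ng/mL recombinant HGF for 15 min at 37° C in triplicate, then lysed in RIPA. Equal protein (50–100 μg, BCA-normalized) run in pMET sandwich ELISA, A450 read. Responses scaled 1–10 between 1 ng/mL and 10 ng/mL HGF means, using peak efficacy.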

Data set [1] can be described thus: Turbidimetric solubility assay. The data set is classed as physicochemical. As to conditions: PBS (diluted from 10 mM DMSO stock), aqueous buffer, kinetic from dmso stock, 37° C. for 2 hours, dilution series 3 to 300 μM. How it is done:
Aqueous solubility is a critical drug property that helps to predict bioavailability. Generally, compounds with aqueous solubility <100 μg/ml are poor drugs.
To assess a compound's solubility by turbidity, test compounds were first dissolved in organic solvent (DMSO) at a concentration of 10 mM. This compound solution was then diluted in aqueous solvent (PBS) in a dilution series from 3 to 300 μM in a 96-well assay plate. Solutions were incubated at 37° C. for 2 hours.
In wells with test compounds over their solubility limit, the compound will precipitate, effectively blocking the passage of light and thus increasing the absorbance signal of UV light at a wavelength of 620 nm. Compounds were considered insoluble at a tested concentration if turbidity raises the absorbance more than 10% above control reads.

A further data set relates to MDCK cells. As to the kind of experiment: Cell scattering behavior assay. More on the design: key: − indicates that the compound failed to significantly promote cell scattering behavior; + indicates maximum potency at or above 100 nM; ++ indicates maximum potency at or above 10 nM; +++ indicates maximum potency at or above 1 nM; ++++ indicates maximum potency at or above 0.1 nM. Type of data set: cell-based. As to conditions: with 5 ng/mL HGF, 24 hours, normalized particle count compared to HGF treatment alone. In short, it runs like this: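 MDCK cells starved 2 h in serum-free DMEM, then treated 24 h at 37 °C with compounds plus 5 ng/mL HGF. Cells were ethanol-fixed, WGA488-stained and imaged. Scattering was scored as particle count normalized to stained area, with activity taken as a statistical increase in normalized particle count over HGF alone.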

Data set [2] is described as follows: Parallel artificial membrane permeability assay (PAMPA). Type of data set: in vitro ADME. Particulars: PBS, room temperature for 5 hours, 200 uM in donor well. The method, then:
Bioavailable drugs must permeate the cellular membranes of the lining of the digestive tract. To estimate the penetrability of exemplary compounds, the in vitro parallel artificial membrane permeability assay (PAMPA) was utilized.
Test compounds must have a standard curve in the final read plate to determine partitioned concentration of each drug. A 6-point standard curve was prepared for each compound from 0 to 200 μM in phosphate-buffered saline (PBS).
Test compound solution (300 μL in PBS) was added to the donor (bottom) well of the PAMPA plate in 5 replicates and PBS vehicle (200 μL) was added to the acceptor (top) wells of appropriate wells to match the loading of the donor plate. The bottom and top of the PAMPA plates were then sandwiched together. The PAMPA plates were then incubated at room temperature for 5 hours. After incubation, 150 μL of donor solution was added to a UV compatible plate containing the corresponding standard curve. 150 μL of acceptor well solution was added adjacent to the corresponding standard curve and donor well samples for that compound. The plate was then read using a UV plate reader.
Permeability and membrane retention were then calculated based on the following formulas:
where: • A=filter area (0.3 cm^2); • VD=donor well volume (0.3 mL); • VA=acceptor well volume (0.2 mL); • t=incubation time (seconds); • CA(t)=compound concentration in acceptor well at time t; • CD(t)=compound concentration in donor well at time t; and
where: • CD(t), VD, CA(t), and VA are as defined for equation 1, and • C0=initial concentration in donor well (200 uM).

As for `CC1C(=O)N(CCCC(F)(F)F)CC2N(Cc3ccc(OC(F)F)cc3)CCC(=O)N12` (centres unmarked) [Compound 37], the Potency result with HGF/MET system is given as “−”. The solubility at 2 h in data set [1] is > 300 µM.
Consider `CC1C(=O)N(CCC(F)(F)F)CC2N(Cc3ccc(OC(F)F)cc3)CCC(=O)N12` (centres unmarked) [Compound 52], for which, in the data set with HGF/MET system, the Potency entry is “−”. The solubility at 2 h in data set [1] is > 100 µM.
With `CCC(C)CN1CC2N(Cc3ccc(O)cc3)CCC(=O)N2[C@@H](C)C1=O` (some centres unmarked) [Compound 3a], the Potency entry with HGF/MET system and with MDCK cells was “−” each time. In data set [1], the solubility at 2 h is > 300 µM. Moreover, in data set [2], the Papp at 5 h, 200 uM was < 2 ×10⁻⁶ cm/s.
